Laboratory results from patent US4581354A, “3-arylcarbonyl- and 3-cycloalkylcarbonyl-1-aminoalkyl-1H-indoles, compositions and use” (Sterling Drug Inc., priority 1985, dated 1986).
Counter-ions that a name gives are not always drawn. Like-named read-outs stand apart in the source and are kept apart here.

How the values were obtained:
[1] = test system: acetylcholine-induced abdominal constriction; experiment: animal or person; assay type: in vivo, mice; conditions: for ED50: read-out: Ach ED50; for inhibition in vivo at 3 mg/kg: 3 mg./kg. i.v.; for inhibition in vivo at 300 mg/kg: 300 mg./kg. oral; for inhibition in vivo at 1000 mg/kg: 1000 mg./kg. oral; for inhibition in vivo at 10 mg/kg: 10 mg./kg. i.v.
bradykinin = experiment: anti-bradykinin test (BRDK); assay type: in vivo; conditions: read-out: BRDK percent inhibition
From the text: The test procedures used to determine the analgesic activities of the compounds have been described in detail in the prior art and are as follows: The acetylcholine-induced abdominal constriction test, which is a primary analgesic screening test designed to measure the ability of a test agent to suppress acetylcholine-induced abdominal constriction in mice, described by Collier et al., Brit. J. Pharmacol. Chemotherap. 32, 295 (1968); a modification of the anti-bradykinin test, which is also a primary analgesic screening procedure, described by Berkowitz et al., J. Pharmacol. Exptl. Therap. 177, 500-508 (1971), Blane et al., J. Pharm. Pharmacol. 19, 367-373 (1967), Botha et al., Eur. J. Pharmacol. 6, 312-321 (1969) and Deffenu et al., J. Pharm. Pharmacol. 18, 135 (1966); and the rat paw flexion test, described by Kuzuna et al., Chem. Pharm. Bull., 23, 1184-1191 (1975), Winter et al., J. Pharm. Exptl. Therap., 211, 678-685 (1979) and Capetola et al., J. Pharm. Exptl. Therap. 214, 16-23 (1980).
Unless noted otherwise, all data were obtained on oral administration and are expressed either as the ED50 or as the percent inhibition at a given dose level (thus 30/100 or 30% inhibition at […].)
In some instances, the compounds were retested two or more times, and ED50 values were calculated for each series of repeat tests. In such instances, each of the ED50 values so-obtained is given in a series of values, thus 6, 28, 30, 43 in the case of the species of Example 1AW in the acetylcholine-induced abdominal constriction test.

[2] = Mus musculus, iv, read-out: Ach percent inhibition
[3] = Mus musculus, po, 100 mg./kg. oral, read-out: Ach percent inhibition
[4] = Mus musculus, po, 100 mg./kg. oral, Table D, formula II intermediates (Preparations), read-out: Ach percent inhibition
[5] = Mus musculus, po, 30 mg./kg. oral, read-out: Ach percent inhibition
[6] = Mus musculus, po, read-out: Ach percent inhibition

Cc1c(C(=O)c2ccc(CN)cc2)c2ccccc2n1CCN1CCOCC1.Cl.Cl [Example 7, 2-methyl-3-(4-aminomethylbenzoyl)-1-[2-(4-morpholinyl)ethyl]-1H-indole dihydrochloride]
ED50 ([1]; Mus musculus, po): 40 mg/kg
inhibition in vivo at 300 mg/kg (bradykinin; 300 mg./kg. oral): 0%

Cc1c(C(=O)c2ccc(NC(=O)c3ccccc3)cc2)c2ccccc2n1CCN1CCOCC1 [Example 5D]
inhibition in vivo at 3 mg/kg [1, 2]: 57%
ED50 ([1]; Mus musculus, iv): 29.1 mg/kg
ED50 ([1]; Mus musculus, po): 84 mg/kg
inhibition in vivo at 200 mg/kg (bradykinin; 200 mg./kg. oral): 20%

COc1ccc(C(=O)c2c(C)n(CCN3CCSCC3)c3ccccc23)cc1 [Example 3U, 2-methyl-3-(4-methoxybenzoyl)-1-[2-(4-thiomorpholinyl)ethyl]-1H-indole]
inhibition in vivo at 100 mg/kg [1, 3]: 30%

CCNCCn1c(C)c(C(=O)c2ccc(OC)cc2)c2ccccc21 [Example 3K]
ED50 ([1]; Mus musculus, po): 45.7 mg/kg

Cc1c(C(=O)c2ccccc2F)c2cc(F)ccc2n1C(C)CN1CCOCC1 (centres unmarked) [Example 2BD]
ED50 ([1]; Mus musculus, po): 15 mg/kg

Cc1c(C(=O)c2ccccc2C#N)c2ccccc2n1CCN1CCOCC1 [Example 2L]
inhibition in vivo at 100 mg/kg [1, 3]: 10%

Cc1[nH]c2ccccc2c1C(=O)c1ccc(-c2ccccc2)cc1 [Preparation 1AL]
inhibition in vivo at 100 mg/kg [1, 4]: 20%

Cc1cccc(C(=O)c2c(C)n(CCN3CCOCC3)c3ccccc23)c1 [Example 2AW]
inhibition in vivo at 100 mg/kg [1, 3]: 20%

COc1ccc(C(=O)c2c(C)n(CCN3CCOCC3)c3cc(OC)ccc23)cc1 [Example 1AM]
ED50 ([1]; Mus musculus, iv): 5 mg/kg
ED50 ([1]; Mus musculus, po): 32 mg/kg

CN(C)CCn1cc(C(=O)c2ccccc2)c2ccccc21 [Example 1CH]
ED50 ([1]; Mus musculus, po): 105 mg/kg

CCCCNc1ccc(C(=O)c2c(C)n(CCN3CCOCC3)c3ccccc23)cc1 [Example 8B, 2-methyl-3-(4-butylaminobenzoyl)-1-[2-(4-morpholinyl)ethyl]-1H-indole]
inhibition in vivo at 100 mg/kg [1, 3]: 35%

Cc1c(C(=O)c2cccn2C)c2ccccc2n1C(C)CN1CCOCC1 (centres unmarked) [Example 2H]
ED50 ([1]; Mus musculus, po): 49 mg/kg

COc1ccc(C(=O)c2c(C)n(C(C)CCN3CCOCC3)c3ccc(F)cc23)cc1 (centres unmarked) [Example 1BT]
inhibition in vivo at 100 mg/kg [1, 3]: 90%

Cc1c(C(=O)c2cc3ccccc3s2)c2ccccc2n1CCN1CCOCC1 [Example 2S]
inhibition in vivo at 100 mg/kg [1, 3]: 0%

Cc1ccc(C(=O)c2cn(C(C)CN3CCOCC3)c3ccccc23)cc1 (centres unmarked) [Example 2A, 3-(4-methylbenzoyl)-1-[1-methyl-2-(4-morpholinyl)ethyl]-1H-indole]
inhibition in vivo at 30 mg/kg [1, 5]: 7%
inhibition in vivo at 300 mg/kg [1, 6]: 60%
inhibition in vivo at 550 mg/kg ([1]; Mus musculus, po, 550 mg./kg. oral, read-out: Ach percent inhibition): 73%
inhibition in vivo at 1000 mg/kg [1, 6]: 67%

COc1ccc(C(=O)c2c(C)n(CCN3CCNCC3)c3ccccc23)cc1.CS(=O)(=O)O.CS(=O)(=O)O [Example 27A, 2-methyl-3-(4-methoxybenzoyl)-1-[2-(1-piperazinyl)ethyl]-1H-indole dimethanesulfonate]
ED50 ([1]; Mus musculus, po): 20.7 mg/kg

Cc1c(C(=O)c2cccc3ccccc23)c2ccccc2n1CCN1CCCC(O)C1 (centres unmarked) [Example 3H]
ED50 ([1]; Mus musculus, iv): 9.7 mg/kg

Cc1c(C(=O)c2cccc3ccccc23)c2ccccc2n1CCN1CCOCC1 [Example 1BB]
ED50 ([1]; Mus musculus, po): 97 mg/kg

CC(CN1CCOCC1)n1cc(C(=O)c2ccc(F)cc2)c2ccccc21 (centres unmarked) [Example 2D]
inhibition in vivo at 100 mg/kg [1, 3]: 20%
inhibition in vivo at 300 mg/kg [1, 6]: 40%
inhibition in vivo at 1000 mg/kg [1, 6]: 67%

Cc1c(C(=O)c2ccc(C#N)cc2)c2ccccc2n1CCCN1CCOCC1 [Example 1AA]
inhibition in vivo at 100 mg/kg [1, 3]: 10%

Cc1c(C(=O)c2ccn(C)c2)c2ccccc2n1CCN1CCOCC1 [Example 2N]
inhibition in vivo at 100 mg/kg [1, 3]: 20%

Cc1cccc(C(=O)c2c(C)n(CCN3CCOCC3)c3ccccc23)c1C [Example 2AT]
inhibition in vivo at 100 mg/kg [1, 3]: 20%

COc1ccc(C(=O)c2c(C)n(CCN3CCS(=O)(=O)CC3)c3ccccc23)cc1 [Example 3V]
ED50 ([1]; Mus musculus, po): 254 mg/kg

COc1ccc(C(=O)c2c(C)n(CCCCN3CCCCC3)c3ccccc23)cc1 [Example 3AB]
ED50 ([1]; Mus musculus, po): 25 mg/kg

COc1ccc(C(=O)c2c(C)n(CCN3CCCC3)c3ccccc23)cc1 [Example 1K]
inhibition in vivo at 3 mg/kg [1, 2]: 30%
inhibition in vivo at 5.5 mg/kg ([1]; Mus musculus, iv, 5.5 mg./kg. i.v., read-out: Ach percent inhibition): 25%
inhibition in vivo at 10 mg/kg [1, 2]: 44%
ED50 ([1]; Mus musculus, po): 255 mg/kg

Cc1c(C(=O)c2ccc(F)cc2F)c2cc(F)ccc2n1CCCN1CCOCC1 [Example 2AO]
inhibition in vivo at 100 mg/kg [1, 3]: 40%

COc1ccc(C(=O)c2c(C)n(CC(O)CN3CCOCC3)c3ccccc23)cc1 (centres unmarked) [Example 31G]
ED50 ([1]; Mus musculus, po): 133 mg/kg

Cc1c(C(=O)c2ccc(NS(C)(=O)=O)cc2)c2ccccc2n1CCN1CCOCC1 [Example 5E]
inhibition in vivo at 150 mg/kg ([1]; Mus musculus, po, 150 mg./kg. oral, read-out: Ach percent inhibition): 38%
inhibition in vivo at 300 mg/kg [1, 6]: 40%

5-bromo-2-methyl-3-(4-methylbenzoyl)-1-[2-(4-morpholinyl)ethyl]-1H-indole [Example 33]
Ach percent inhibition ([1]; 100 mg./kg. oral): 20%

COc1ccc(C(=O)c2c(C)n(CCCN3CCOCC3)c3c(F)cc(F)cc23)cc1 [Example 1BR]
ED50 ([1]; Mus musculus, po): 123 mg/kg

COc1ccc(C(=O)c2c(C)n(CCCNCCCCl)c3ccccc23)cc1 [Example 28, 1-[3-(3-chloropropylamino)propyl]-2-methyl-3-(4-methoxybenzoyl)-1H-indole hydrochloride]
inhibition in vivo at 100 mg/kg [1, 3]: 90%

Cc1c(C(=O)c2ccc(-n3cccc3)cc2)c2ccccc2n1CCN1CCOCC1 [Example 14, 2-methyl-3-[4-(1H-pyrrol-1-yl)benzoyl]-1-[2-(4-morpholinyl)ethyl]-1H-indole]
inhibition in vivo at 100 mg/kg [1, 3]: 40%

COc1ccc(C(=O)c2c(C)n(CCCN3CCCC(O)C3)c3ccc(F)cc23)cc1 (centres unmarked) [Example 3W]
ED50 ([1]; Mus musculus, po): 49 mg/kg

Cc1c(C(=O)c2ccc(C#N)cc2)c2cc(F)ccc2n1CCN1CCOCC1 [Example 1CC]
inhibition in vivo at 100 mg/kg [1, 3]: 10%

COc1cc(OC)cc(C(=O)c2c(C)[nH]c3ccccc23)c1 [Preparation 1AO]
inhibition in vivo at 100 mg/kg [1, 4]: 40%

COc1ccc2c(C(=O)c3ccc(N)cc3)c(C)n(CCN3CCOCC3)c2c1 [Example 4C, 2-methyl-3-(4-aminobenzoyl)-6-methoxy-1-[2-(4-morpholinyl)ethyl]-1H-indole]
ED50 ([1]; Mus musculus, po): 37 mg/kg

Cc1c(C(=O)c2cccc(C#N)c2)c2ccccc2n1CCN1CCOCC1 [Example 2M]
inhibition in vivo at 100 mg/kg [1, 3]: 20%

CCN(CC)CCn1c(C)c(C(=O)c2ccc3ccccc3c2)c2ccccc21 [Example 1CE]
inhibition in vivo at 100 mg/kg [1, 3]: 0%

COc1ccc(C(=O)c2c(C)n(CC(O)CN3CCCC3)c3ccc(F)cc23)cc1 (centres unmarked) [Example 31C]
ED50 ([1]; Mus musculus, po): 53 mg/kg

Cc1ccccc1C(=O)c1c(C)n(CCN2CCOCC2)c2ccccc12 [Example 2U]
ED50 ([1]; Mus musculus, po): 88 mg/kg

Cc1c(C(=O)c2ccc(N3CCNCC3)cc2)c2ccccc2n1CCN1CCOCC1 [Example 26C]
inhibition in vivo at 100 mg/kg [1, 3]: 30%

COc1ccc(C(=O)c2c(C)n(CCN3CCOCC3)c3ccccc23)cc1 [Example 1BF]
inhibition in vivo at 30 mg/kg [1, 5]: 0%

COc1ccc(C(=O)c2c(C)n(CCN3CCCC(OC(C)=O)C3)c3ccccc23)cc1.O=C(O)/C=C\C(=O)O (centres unmarked) [Example 21, 1-[2-(3-acetoxy-1-piperidinyl)ethyl]-2-methyl-3-(4-methoxybenzoyl)-1H-indole maleate (1:1)]
ED50 ([1]; Mus musculus, po): 31 mg/kg

COc1ccc(C(=O)c2c(C)n(CCN3CCOCC3)c3cc(O)ccc23)cc1 [Example 18, 6-hydroxy-2-methyl-3-(4-methoxybenzoyl)-1-[2-(4-morpholinyl)ethyl]-1H-indole hydrochloride hydrate (3:4)]
inhibition in vivo at 100 mg/kg [1, 3]: 30%

COc1ccc(C(=O)c2c(C)n(CCCN3CCOC(C)C3)c3ccc(F)cc23)cc1 (centres unmarked) [Example 3Y]
ED50 ([1]; Mus musculus, po): 69 mg/kg

Cc1c(C(=O)c2ccccc2O)c2ccccc2n1CCN1CCOCC1 [Example 16A, 2-methyl-3-(2-hydroxybenzoyl)-1-[2-(4-morpholinyl)ethyl]-1H-indole]
inhibition in vivo at 100 mg/kg [1, 3]: 10%

Cc1cccc2c(C(=O)c3ccccc3)cn(CCN3CCOCC3)c12 [Example 1BA]
ED50 ([1]; Mus musculus, po): 197 mg/kg

COc1ccc(C(=O)c2c(C)n(CCCN3CCCC3)c3ccccc23)cc1 [Example 1CG]
Ach ED50 ([1]; oral): 46.3 mg/kg

COc1ccc(C(=O)c2c(C)n(CCN3CCOCC3)c3ccc(F)cc23)cc1 [Example 1G]
inhibition in vivo at 3 mg/kg [1, 2]: 0%
inhibition in vivo at 10 mg/kg [1, 2]: 50%
inhibition in vivo at 30 mg/kg ([1]; Mus musculus, iv, 30 mg./kg. i.v., read-out: Ach percent inhibition): 100%
ED50 ([1]; Mus musculus, po): 84 mg/kg

COc1ccc(C(=O)c2c(C)n(CCN3CCOCC3)c3cc(Cl)ccc23)cc1 [Example 1-O]
ED50 ([1]; Mus musculus, po): 91.6 mg/kg

COc1ccc(C(=O)c2c(C)n(CCN3CCOCC3)c3ccccc23)cc1F [Example 1V]
inhibition in vivo at 300 mg/kg [1, 6]: 20%
